# In publication PMC5771072, “Benefits of VCE-003.2, a cannabigerol quinone derivative, against inflammation-driven neuronal deterioration in experimental Parkinson’s disease: possible involvement of different binding sites at the PPARγ receptor” (Journal of Neuroinflammation, 2018):
# Biological target: T1, PPARγ (Homo sapiens, UniProt P37231)
# T1 construct: gene PPARG; GAL4-PPARγ
# T1 sequence (P37231 1-505): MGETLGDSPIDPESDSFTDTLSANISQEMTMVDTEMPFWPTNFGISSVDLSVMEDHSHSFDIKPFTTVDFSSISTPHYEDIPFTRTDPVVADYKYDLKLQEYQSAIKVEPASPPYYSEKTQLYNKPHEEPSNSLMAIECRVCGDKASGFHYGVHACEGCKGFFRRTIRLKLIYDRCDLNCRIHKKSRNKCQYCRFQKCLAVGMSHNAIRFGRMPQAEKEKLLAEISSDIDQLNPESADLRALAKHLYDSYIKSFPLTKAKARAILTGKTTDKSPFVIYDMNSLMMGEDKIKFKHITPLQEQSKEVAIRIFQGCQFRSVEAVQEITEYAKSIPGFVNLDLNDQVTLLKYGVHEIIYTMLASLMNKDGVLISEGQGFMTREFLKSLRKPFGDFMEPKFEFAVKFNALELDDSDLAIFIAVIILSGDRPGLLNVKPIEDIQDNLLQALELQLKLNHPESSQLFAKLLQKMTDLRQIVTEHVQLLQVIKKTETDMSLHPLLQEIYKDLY
# Assay: GAL4-PPARγ/GAL4-luc luciferase transactivation in transfected HEK-293T cells (reference full agonist)
# Type: cell-based
smiles,measurement,value
CN(CCOc1ccc(CC2SC(=O)NC2=O)cc1)c1ccccn1 (stereo not shown) [Rosiglitazone],GAL4-PPARγ/GAL4-luc luciferase transactivation in transfected HEK-293T cells (re),RGZ activates PPARγ by acting mainly through the canonical binding site
